Measured values reported in PMC12396409, “Screening and hit evaluation of a microbial metabolite library against the pathogenic Plasmodium falciparum and Toxoplasma gondii parasites” (International Journal for Parasitology: Drugs and Drug …, 2025).
Read-outs that look alike come from different tables or passages of the source.

Assays:
[1] = system: T. gondii RH strain (RH-Tub-eYFP) tachyzoites; assay: microbe, parasite or virus in culture; format: cell-based, Toxoplasma gondii; conditions: for percent parasite growth at 2 µg/mL: Toxoplasma gondii
[2] = system: P. falciparum 3D7 parasites; assay: P. falciparum growth inhibition assay, 2-cycle (120 h treatment), delayed-death screen and dose-response; format: cell-based, Plasmodium falciparum; conditions: for activity at 2 µg/mL: Plasmodium falciparum, 3D7
[3] = system: P. falciparum 3D7 parasites; assay: P. falciparum growth inhibition assay, 1-cycle (72 h treatment), SYBR DNA staining (library screen at 2 μg/mL and dose-response); format: cell-based, Plasmodium falciparum; conditions: for activity at 2 µg/mL: Plasmodium falciparum, 3D7
[4] = T. gondii, 72 h, parasite screen 2 μg/mL, % growth, replicate 1
[5] = T. gondii, 72 h, parasite screen 2 μg/mL, % growth, replicate 2
[6] = P. falciparum, 120 h, parasite screen 2 μg/mL, % growth, replicate 1
[7] = P. falciparum, 120 h, parasite screen 2 μg/mL, % growth, replicate 2
[8] = P. falciparum, 72 h, parasite screen 2 μg/mL, % growth, replicate 1
[9] = P. falciparum, 72 h, parasite screen 2 μg/mL, % growth, replicate 2
[10] = P. falciparum, 120 h, screen at 2 μg/mL, replicate 1, read-out: Pf_120h_%Growth_Rep1
[11] = P. falciparum, 120 h, screen at 2 μg/mL, replicate 2, read-out: Pf_120h_%Growth_Rep2
[12] = P. falciparum, 72 h, screen at 2 μg/mL, replicate 1, read-out: Pf_72h_%Growth_Rep1
[13] = P. falciparum, 72 h, screen at 2 μg/mL, replicate 2, read-out: Pf_72h_%Growth_Rep2
[14] = library screen at 2 μg/mL, 72 h, % growth, replicate 1
[15] = library screen at 2 μg/mL, 72 h, % growth, replicate 2
[16] = library screen at 2 μg/mL, 120 h, % growth, replicate 1
[17] = library screen at 2 μg/mL, 120 h, % growth, replicate 2

CCO[C@@H]1[C@@H](OC)[C@H](C)O[C@@H](O[C@@H]2C[C@H]3CC[C@@H]4[C@@H](C=C5C(=O)[C@H](C)[C@@H](O)CCC[C@H](CC)OC(=O)C[C@H]54)[C@@H]3C2)[C@@H]1OC
Tg_72h_%Growth_Rep1 [1, 4]: 110.35%
Tg_72h_%Growth_Rep2 [1, 5]: 84.17%
Pf_120h_%Growth_Rep1 [2, 6]: 31.22%
Pf_120h_%Growth_Rep2 [2, 7]: 24.15%
Pf_72h_%Growth_Rep1 [3, 8]: 35.55%
Pf_72h_%Growth_Rep2 [3, 9]: 25.61%

CCCCC/C=C/C=C\C=C/[C@H](O)[C@H](C)[C@H](C/C=C/[C@@H]1OC(=O)C=C[C@@H]1O)OS(=O)(=O)[O-].[Na+] [Sultriecin]
Tg_72h_%Growth_Rep1 [1, 4]: 105.98%
Tg_72h_%Growth_Rep2 [1, 5]: 90.75%
Pf_120h_%Growth_Rep1 [2, 6]: 87.78%
Pf_120h_%Growth_Rep2 [2, 7]: 130.19%
Pf_72h_%Growth_Rep1 [3, 8]: 90.74%
Pf_72h_%Growth_Rep2 [3, 9]: 116.83%

CC[C@H]1OC(=O)C[C@@H](O)[C@H](C)[C@@H](O[C@@H]2O[C@H](C)[C@@H](O)[C@H](N(C)C)[C@H]2O)[C@@H](CCN2CCCCC2)C[C@@H](C)C(=O)/C=C/C(C)=C/[C@@H]1CN1CCCCC1 [Tildipirosin]
percent parasite growth at 2 µg/mL ([1]; 72 h, read-out: Tg_72h_%Growth_Rep1): 87.8%
percent parasite growth at 2 µg/mL ([1]; 72 h, read-out: Tg_72h_%Growth_Rep2): 85.6%
activity at 2 µg/mL [2, 10]: 9.99%
activity at 2 µg/mL [2, 11]: 11.7%
activity at 2 µg/mL [3, 12]: 10.8%
activity at 2 µg/mL [3, 13]: 5.94%

COC(=O)C1=C2Nc3ccccc3[C@@]23CCN2C[C@]4(C[C@@H]5C[C@]67CCC[C@H]6CCN6CC[C@@]8(c9cccc(OC)c9N(C4)[C@@]58O)[C@@H]67)[C@@H]4OCC[C@]4(C1)[C@H]23 [Vobtusine]
percent parasite growth at 2 µg/mL ([1]; 72 h, T. gondii, 72 h, screen at 2 μg/mL, replicate 1, read-out: Tg_72h_%Growth_Rep1): 86.1%
percent parasite growth at 2 µg/mL ([1]; 72 h, T. gondii, 72 h, screen at 2 μg/mL, replicate 2, read-out: Tg_72h_%Growth_Rep2): 105%
activity at 2 µg/mL [2, 10]: 166%
activity at 2 µg/mL [2, 11]: 96.3%
activity at 2 µg/mL [3, 12]: 81.5%
activity at 2 µg/mL [3, 13]: 87%

COc1cc2c3c(c1O)-c1c(cc(O)c(OC)c1OC)CCC3N(C)CC2 (stereo not shown) [Floramultine]
Tg_72h_%Growth_Rep1 [1, 14]: 115.84%
Tg_72h_%Growth_Rep2 [1, 15]: 93.93%
Pf_120h_%Growth_Rep1 [2, 16]: 85.60%
Pf_120h_%Growth_Rep2 [2, 17]: 101.00%
Pf_72h_%Growth_Rep1 [3, 14]: 85.55%
Pf_72h_%Growth_Rep2 [3, 15]: 120.01%

COc1cc2c(c3oc(=O)c4c(c13)CCC4=O)[C@@H]1CCO[C@@H]1O2 [Aflatoxin B2]
Tg_72h_%Growth_Rep1 [1]: 112.94%
Tg_72h_%Growth_Rep2 [1]: 92.34%
Pf_120h_%Growth_Rep1 [2]: 93.01%
Pf_120h_%Growth_Rep2 [2]: 84.17%
Pf_72h_%Growth_Rep1 [3]: 82.21%
Pf_72h_%Growth_Rep2 [3]: 80.10%

CC1=C[C@H](C)C[C@H](C)[C@H](Cc2cnco2)OC(=O)/C(C)=C\[C@H](C)C[C@H](C)[C@H](Cc2cnco2)OC1=O [Conglobatin]
Tg_72h_%Growth_Rep1 ([1]; T. gondii, 72 h, screen at 2 μg/mL, replicate 1): 127.73%
Tg_72h_%Growth_Rep2 ([1]; T. gondii, 72 h, screen at 2 μg/mL, replicate 2): 88.01%
Pf_120h_%Growth_Rep1 ([2]; P. falciparum, 120 h, screen at 2 μg/mL, replicate 1): 82.43%
Pf_120h_%Growth_Rep2 ([2]; P. falciparum, 120 h, screen at 2 μg/mL, replicate 2): 72.72%
Mean ([3]; P. falciparum, 72 h, 2 μg/mL, mean of both replicates, growth (% of control)): 52.30
Pf_72h_%Growth_Rep1 ([3]; P. falciparum, 72 h, screen at 2 μg/mL, replicate 1): 86.29%
Pf_72h_%Growth_Rep2 ([3]; P. falciparum, 72 h, screen at 2 μg/mL, replicate 2): 18.30%

CC(C)=CCc1cc(C=C2OC(=O)C(c3cc(CC=C(C)C)c(O)cc3O)=C2O)ccc1O [Aspulvinone O]
Tg_72h_%Growth_Rep1 [1, 14]: 90.15%
Tg_72h_%Growth_Rep2 [1, 15]: 99.19%
Pf_120h_%Growth_Rep1 [2, 16]: 144.60%
Pf_120h_%Growth_Rep2 [2, 17]: 98.61%
Pf_72h_%Growth_Rep1 [3, 14]: 82.88%
Pf_72h_%Growth_Rep2 [3, 15]: 86.74%
